Among the data in patent publication US9783530B2, “Factor Xla inhibitors” (Merck Sharp & Dohme Corp., priority 2014, dated 2017) are IC50 values, retold here.

Assay [1] deals with purified human Factor XIa (Homo sapiens (Human), UniProt P03951). The experiment in a line: Factor XIa Assay. Type of assay: biochemical. The conditions noted are these: purified human Factor XIa 40 pM, substrate Z-Gly-Pro-Arg-AFC, pH 7.4; read-out: FXIa IC50. The procedure:
The effectiveness of a compound of the present invention as an inhibitor of Coagulation Factor XIa can be determined using a relevant purified serine protease, and an appropriate synthetic substrate. The rate of hydrolysis of the chromogenic or fluorogenic substrate by the relevant serine protease was measured both in the absence and presence of compounds of the present invention. Assays were conducted at room temperature or at 37° C. […] A decrease in the rate of fluorescence change in the presence of inhibitor is indicative of enzyme inhibition. Such methods are known to one skilled in the art. […]
Factor XIa determinations were made in 50 mM HEPES buffer at pH 7.4 containing 150 mM NaCl, 5 mM CaCl2, and 0.1% PEG 8000 (polyethylene glycol; JT Baker or Fisher Scientific). Determinations were made using purified human Factor XIa at a final concentration of 40 pM (Sekisui Diagnostics) and he synthetic substrate, Z-Gly-Pro-Arg-AFC, TFA salt (Sigma #C0980) at a concentration of 100 µM.
Activity assays were performed by diluting a stock solution of substrate at least tenfold to a final concentration ≦0.1 Km into a solution containing enzyme or enzyme equilibrated with inhibitor. Times required to achieve equilibration between enzyme and inhibitor were determined in control experiments. Initial velocities of product formation in the absence (Vo) or presence of inhibitor (Vi) were measured. Assuming competitive inhibition, and that unity is negligible compared Km/[S], [I]/e, and [I]/e (where [S], [I], and e respectively represent the total concentrations, of substrate, inhibitor and enzyme), the equilibrium constant (Ki) for dissociation of the inhibitor from the enzyme can be obtained from the dependence of Vo/Vi on [I] shown in the following equation.

For assay [2], the target named is purified Human plasma kallikrein (Homo sapiens (Human), UniProt P03952). The assay can be described thus: Kallikrein Assay. Type of assay: biochemical. Particulars: purified Human plasma kallikrein 0.5 nM, substrate Acetyl-K-P-R-AFC, pH 7.4; read-out: P. KLK IC50. The procedure: The effectiveness of a compound of the present invention as an inhibitor of Kallikrein can be determined using a relevant purified serine protease, and an appropriate synthetic substrate. The rate of hydrolysis of the chromogenic or fluorogenic substrate by the relevant serine protease was measured both in the absence and presence of compounds of the present invention. Assays were conducted at room temperature or at 37° C. […] A decrease in the rate of fluorescence change in the presence of inhibitor is indicative of enzyme inhibition. Such methods are known to one skilled in the art. The results of this assay are expressed as the inhibitory constant, Ki.
Sequence of purified Human plasma kallikrein (P03952 391-638): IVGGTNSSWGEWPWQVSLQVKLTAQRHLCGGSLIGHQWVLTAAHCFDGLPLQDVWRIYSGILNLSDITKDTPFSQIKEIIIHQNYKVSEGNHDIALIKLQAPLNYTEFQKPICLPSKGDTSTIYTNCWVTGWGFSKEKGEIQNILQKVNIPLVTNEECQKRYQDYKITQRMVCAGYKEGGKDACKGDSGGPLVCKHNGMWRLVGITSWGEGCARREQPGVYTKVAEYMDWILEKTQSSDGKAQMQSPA
Sequence of purified Human plasma kallikrein (P03952 20-390 partner): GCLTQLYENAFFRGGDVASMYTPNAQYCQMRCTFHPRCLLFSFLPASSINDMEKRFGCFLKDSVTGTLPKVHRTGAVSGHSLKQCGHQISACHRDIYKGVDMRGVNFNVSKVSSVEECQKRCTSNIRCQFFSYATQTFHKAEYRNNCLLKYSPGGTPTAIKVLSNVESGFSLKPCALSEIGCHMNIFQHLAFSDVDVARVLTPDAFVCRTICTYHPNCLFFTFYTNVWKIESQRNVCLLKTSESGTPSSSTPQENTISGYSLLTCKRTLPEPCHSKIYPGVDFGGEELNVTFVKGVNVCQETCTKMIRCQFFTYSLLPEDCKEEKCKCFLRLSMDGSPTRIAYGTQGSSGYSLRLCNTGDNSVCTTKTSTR
Kallikrein determinations were made in 50 mM HEPES buffer at pH 7.4 containing 150 mM NaCl, 5 mM CaCl2, and 0.1% PEG 8000 (polyethylene glycol; Fisher Scientific). Determinations were made using purified Human plasma kallikrein at a final concentration of 0.5 nM (Enzyme Research Laboratories) and the synthetic substrate, Acetyl-K-P-R-AFC (Sigma # C6608) at a concentration of […].
Activity assays were performed by diluting a stock solution of substrate at least tenfold to a final concentration ≦0.2 Km into a solution containing enzyme or enzyme equilibrated with inhibitor. Times required to achieve equilibration between enzyme and inhibitor were determined in control experiments. The reactions were performed under linear progress curve conditions and fluorescence increase measured at 405 Ex/510 Em nm. Values were converted to percent inhibition of the control reaction (after subtracting 100% Inhibition value). IC50 was determined by inflection point from a four parameter logistic curve fit. Ki was calculated using the Cheng Prusoff equation, Ki=IC50/(1+([S]/Km)).

What is called IC50 is the concentration at which inhibition is half-maximal.

Sequence of purified human Factor XIa (P03951 388-625): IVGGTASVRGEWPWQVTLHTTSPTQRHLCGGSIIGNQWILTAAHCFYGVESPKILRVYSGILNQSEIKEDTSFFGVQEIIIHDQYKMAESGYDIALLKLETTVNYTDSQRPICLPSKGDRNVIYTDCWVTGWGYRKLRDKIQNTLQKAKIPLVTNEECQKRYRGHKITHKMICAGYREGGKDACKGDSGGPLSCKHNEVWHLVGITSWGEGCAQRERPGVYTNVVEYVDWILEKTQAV
Sequence of purified human Factor XIa (P03951 19-387 partner): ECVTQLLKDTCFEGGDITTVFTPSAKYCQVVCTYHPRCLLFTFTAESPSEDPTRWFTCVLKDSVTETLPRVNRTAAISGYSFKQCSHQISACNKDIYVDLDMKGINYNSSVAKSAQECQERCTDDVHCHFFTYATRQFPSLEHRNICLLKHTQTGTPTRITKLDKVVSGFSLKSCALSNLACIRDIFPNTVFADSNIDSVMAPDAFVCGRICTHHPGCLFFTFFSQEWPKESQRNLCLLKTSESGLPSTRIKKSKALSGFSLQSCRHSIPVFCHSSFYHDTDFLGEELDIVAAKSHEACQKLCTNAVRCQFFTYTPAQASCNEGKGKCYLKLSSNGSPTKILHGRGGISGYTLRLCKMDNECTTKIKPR

As to `O=C(Nc1ccc2cn[nH]c2c1)C(Cc1ccccc1)c1ccc(-c2c(F)ccc(Cl)c2F)c[n+]1[O-]` (racemic) [Example 5, 2-[5-(3-chloro-2,6-difluorophenyl)-1-oxidopyridin-2-yl]-N-1H-indazol-6-yl-3-phenylpropanamide], the IC50 in assay [1] was 109 nM; in assay [2], 91.4 nM.
In the case of `O=C(Nc1ccc2cn[nH]c2c1)C(Cc1ccccc1)c1ccc(-c2cc(Cl)ccc2-n2cnnn2)c[n+]1[O-]` (racemic) [Example 6, 2-{5-[5-chloro-2-(1H-tetrazol-1-yl)phenyl]-1-oxidopyridin-2-yl}-N-1H-indazol-6-yl-3-phenylpropanamide], the results for the IC50 in assay [1] and in assay [2] were 0.24 nM and 1.9 nM, respectively.
Regarding `NCc1ccc(Cl)cc1-c1ccc(C(CC2CC2)C(=O)Nc2ccc(C(=O)O)cc2)[n+]([O-])c1` (racemic) [Example 40, 4-[(2-{5-[2-(aminomethyl)-5-chlorophenyl]-1-oxidopyridin-2-yl}-3-cyclopropylpropanoyl)amino]benzoic acid], the results for the concentration for half-maximal inhibition (IC50) in assay [1] and in assay [2] were 30.6 nM and 1880 nM, respectively.
For `O=C(O)c1ccc(NC(=O)C(CC2CC2)c2ccc(-c3cc(Cl)ccc3-n3cc(CO)nn3)c[n+]2[O-])cc1` (racemic) [Example 42, 4-{[2-(5-{5-chloro-2-[4-(hydroxymethyl)-1H-1,2,3-triazol-1-yl]phenyl}-1-oxidopyridin-2-yl)-3-cyclopropylpropanoyl]amino}benzoic acid], the half-inhibitory concentration (IC50) stood at 8.45 nM in assay [1] and 1610 nM in assay [2].
In the case of `O=C(O)c1ccc(NC(=O)C(CC2CC2)c2ccc(-c3c(-n4cnnn4)ccc(Cl)c3F)c[n+]2[O-])cc1` (racemic) [Example 50, 4-[(2-{5-[3-chloro-2-fluoro-6-(1H-tetrazol-1-yl)phenyl]-1-oxidopyridin-2-yl}-3-cyclopropylpropanoyl)amino]benzoic acid], the IC50 in assay [1] stood at 0.19 nM; in assay [2], 25.1 nM.
`O=C(NC12CCC(C(=O)O)(CC1)CC2)C(Cc1ccccc1)c1ccc(-c2c(F)ccc(Cl)c2F)c[n+]1[O-]` (single isomer, unassigned) [Example 15, 4-({2-[5-(3-chloro-2,6-difluorophenyl)-1-oxidopyridin-2-yl]-3-phenylpropanoyl}amino) bicyclo[2.2.2]octane-1-carboxylic acid]: the IC50 in assay [1] turned out to be 111 nM; in assay [2], 45 nM.
Taken in the same sequence, the figures for `O=C(NC12CCC(C(=O)O)(CC1)CC2)C(Cc1ccccc1)c1ccc(-c2cc(Cl)ccc2-n2cnnn2)c[n+]1[O-]` (single isomer, unassigned) [Example 17, 4-[(2-{5-[5-chloro-2-(1H-tetrazol-1-yl)phenyl]-1-oxidopyridin-2-yl}-3-phenylpropanoyl)amino] bicyclo[2.2.2]octane-1-carboxylic acid] were 0.76 nM and 144 nM.
In the case of `COC(=O)NC12CCC(NC(=O)C(Cc3ccccc3)c3ccc(-c4cc(Cl)ccc4-n4cnnn4)c[n+]3[O-])(CC1)CC2` (single isomer, unassigned) [Example 19, methyl {4-[(2-{5-[5-chloro-2-(1H-tetrazol-1-yl)phenyl]-1-oxidopyridin-2-yl}-3-phenylpropanoyl)amino]bicyclo[2.2.2]oct-1-yl}carbamate], the values for the half-inhibitory concentration (IC50) in assay [1] and in assay [2] were 4.1 nM and 9.2 nM, respectively.
Consider `COc1cc(C(Cc2ccccc2)C(=O)Nc2ccc(C(=O)O)cc2)[n+]([O-])cc1-c1cc(Cl)ccc1C#N` (single isomer, unassigned) [Example 23, 2-(1-((4-carboxyphenyl)amino)-1-oxo-3-phenylpropan-2-yl)-5-(5-chloro-2-cyanophenyl)-4-methoxypyridine 1-oxide], for which the figures for the IC50 in assay [1] and in assay [2] were 9.39 nM and 24.6 nM, respectively.
Take `COc1cc(C(Cc2ccccc2)C(=O)Nc2ccc(C(=O)O)cc2)[n+]([O-])cc1-c1cc(Cl)ccc1C#N` (single isomer, unassigned) [Example 24, 2-(1-((4-carboxyphenyl)amino)-1-oxo-3-phenyl-propan-2-yl)-5-(5-chloro-2-cyanophenyl)-4-methoxypyridine 1-oxide]: the figures for the IC50 in assay [1] and in assay [2] were 0.29 nM and 0.7 nM, respectively.
For the molecule `N#Cc1ccc(Cl)c(F)c1-c1ccc(C(CC2CC2)C(=O)Nc2ccc(C(=O)O)cc2)[n+]([O-])c1` (single isomer, unassigned) [Example 30, 4-({2-[5-(3-chloro-6-cyano-2-fluorophenyl)-1-oxidopyridin-2-yl]-3-cyclopropylpropanoyl}amino)benzoic acid], the half-inhibitory concentration (IC50) in assay [1] was 4.24 nM; in assay [2], 80.4 nM.
Taken in the same sequence, the figures for `O=C(O)c1ccc(NC(=O)C(CC2CC2)c2ccc(-c3cc(Cl)ccc3-n3cnnn3)c[n+]2[O-])c(Cl)c1` (single isomer, unassigned) [Example 32, 3-chloro-4-[(2-{5-[5-chloro-2-(1H-tetrazol-1-yl)phenyl]-1-oxidopyridin-2-yl}-3-cyclopropylpropanoyl)amino]benzoic acid] were 3.37 nM and 692 nM.
For the molecule `O=C(O)c1ccc(NC(=O)C(CC2CC2)c2ccc(-c3cc(Cl)ccc3-c3cnco3)c[n+]2[O-])cc1` (single isomer, unassigned) [Example 35, 4-[(2-{5-[5-chloro-2-(1,3-oxazol-5-yl)phenyl]-1-oxidopyridin-2-yl}-3-cyclopropylpropanoyl)amino]benzoic acid], the concentration for half-maximal inhibition (IC50) is 5.65 nM in assay [1] and 408 nM in assay [2].
Take `O=C(O)c1ccc(NC(=O)C(CC2CC2)c2ccc(-c3cc(Cl)ccc3OC(F)(F)F)c[n+]2[O-])cc1` (single isomer, unassigned) [Example 39, 4-[(2-{5-[5-chloro-2-(trifluoromethoxy)phenyl]-1-oxidopyridin-2-yl}-3-cyclopropylpropanoyl)amino]benzoic acid]: the IC50 in assay [1] stood at 18.9 nM; in assay [2] it was 830 nM.
Turning to `O=C(O)c1ccc(NC(=O)C(CC2CC2)c2ccc(-c3cc(Cl)ccc3-n3cnnn3)c[n+]2[O-])cc1F` (single isomer, unassigned) [Example 44, 4-[(2-{5-[5-chloro-2-(1H-tetrazol-1-yl)phenyl]-1-oxidopyridin-2-yl}-3-cyclopropylpropanoyl)amino]-2-fluorobenzoic acid], the IC50 in assay [1] is 18 nM; in assay [2], 3260 nM.
Regarding `O=C(O)c1ccc(NC(=O)C(CC2CC2)c2ccc(-c3cc(Cl)ccc3-n3cnnn3)c[n+]2[O-])cc1F` (single isomer, unassigned) [Example 45, 4-[(2-{5-[5-chloro-2-(1H-tetrazol-1-yl)phenyl]-1-oxidopyridin-2-yl}-3-cyclopropylpropanoyl)amino]-2-fluorobenzoic acid], the IC50 turned out to be 0.07 nM in assay [1] and 17.6 nM in assay [2].
The matching figures for `Cc1cc(C(=O)O)ccc1NC(=O)C(CC1CC1)c1ccc(-c2cc(Cl)ccc2-n2cnnn2)c[n+]1[O-]` (single isomer, unassigned) [Example 47, 4-[(2-{5-[5-chloro-2-(1H-tetrazol-1-yl)phenyl]-1-oxidopyridin-2-yl}-3-cyclopropylpropanoyl)amino]-3-methylbenzoic acid]: 15.1 nM and 2350 nM.
With `Cc1cc(NC(=O)C(CC2CC2)c2ccc(-c3cc(Cl)ccc3-n3cnnn3)c[n+]2[O-])ccc1C(=O)O` (single isomer, unassigned) [Example 48, 4-[(2-{5-[5-chloro-2-(1H-tetrazol-1-yl)phenyl]-1-oxidopyridin-2-yl}-3-cyclopropylpropanoyl)amino]-2-methylbenzoic acid], the figures for the IC50 in assay [1] and in assay [2] were 0.46 nM and 83.1 nM, respectively.
For the molecule `O=C(O)c1ccc(NC(=O)C(CC2CC2)c2ccc(-c3cc(Cl)ccc3-n3cc(C(F)F)nn3)c[n+]2[O-])cc1` (single isomer, unassigned) [Example 52, 4-{[2-(5-{5-chloro-2-[4-(difluoromethyl)-1H-1,2,3-triazol-1-yl]phenyl}-1-oxidopyridin-2-yl)-3-cyclopropylpropanoyl]amino}benzoic acid], in assay [2], the IC50 amounted to 85.6 nM.
